In brackets after ≈: the same amount, converted by molar mass.
Key:
[1] = physchem; details: phosphate buffer, pH 4
Description: Thermodynamic solubility of the compound in phosphate buffer at pH 4 after 24 hrs by HPLC analysis

[2] = Lipophilicity, log D of the compound at pH 7.4; details: buffer
[3] = species on record: Homo sapiens; assay: Selectivity ratio of Ki for human CB2 receptor to Ki for human CB1 receptor
[4] = target: T1, Cannabinoid receptor 1 (Homo sapiens, UniProt P21554); assay: Displacement of [3H]-CP55940 from human CB1 receptor expressed in CHO cells by liquid scintillation counting; type: cell-based
T1 sequence (P21554 whole entry): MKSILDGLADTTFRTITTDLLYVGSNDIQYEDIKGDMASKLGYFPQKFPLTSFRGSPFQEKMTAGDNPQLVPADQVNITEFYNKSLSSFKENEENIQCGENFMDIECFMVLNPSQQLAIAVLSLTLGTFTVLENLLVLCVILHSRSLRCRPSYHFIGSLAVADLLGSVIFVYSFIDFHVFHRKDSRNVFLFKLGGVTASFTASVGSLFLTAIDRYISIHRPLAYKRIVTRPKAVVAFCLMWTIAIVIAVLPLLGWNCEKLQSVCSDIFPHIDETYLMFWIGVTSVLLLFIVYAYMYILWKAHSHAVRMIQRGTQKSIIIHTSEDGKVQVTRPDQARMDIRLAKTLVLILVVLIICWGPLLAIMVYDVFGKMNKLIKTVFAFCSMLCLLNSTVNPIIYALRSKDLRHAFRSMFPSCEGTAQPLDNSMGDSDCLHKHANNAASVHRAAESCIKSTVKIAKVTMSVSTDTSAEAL

[5] = target: T2, Cannabinoid receptor 2 (Homo sapiens, UniProt P34972); assay: Agonist activity at human CB2 receptor expressed in CHO cells assessed as inhibition of forskolin-stimulated cAMP accumulation after 20 mins; type: functional, cell-based
T2 sequence (P34972 whole entry): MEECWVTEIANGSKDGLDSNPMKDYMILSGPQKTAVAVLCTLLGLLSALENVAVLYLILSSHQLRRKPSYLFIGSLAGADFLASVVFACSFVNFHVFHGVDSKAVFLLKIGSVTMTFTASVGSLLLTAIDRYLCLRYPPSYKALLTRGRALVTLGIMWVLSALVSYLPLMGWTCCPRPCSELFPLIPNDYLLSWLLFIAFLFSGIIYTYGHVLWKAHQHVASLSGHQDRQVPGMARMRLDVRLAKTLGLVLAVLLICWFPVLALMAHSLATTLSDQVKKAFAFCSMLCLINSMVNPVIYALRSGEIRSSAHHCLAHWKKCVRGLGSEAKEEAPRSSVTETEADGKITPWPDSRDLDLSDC

[6] = target: T2, Cannabinoid receptor 2; assay: Displacement of [3H]-CP55940 from human CB2 receptor expressed in CHO cells by liquid scintillation counting; type: cell-based
[7] = physchem; details: phosphate buffer, pH 7.4
Description: Thermodynamic solubility of the compound in phosphate buffer at pH 7.4 after 24 hrs by HPLC analysis

[8] = target: T1, Cannabinoid receptor 1; assay: Agonist activity at human CB1 receptor expressed in CHO cells assessed as stimulation of [3H]-arachidonic acid release; type: functional, cell-based
[9] = target: Cannabinoid receptor 1 (Rattus norvegicus) (UniProt P20272); assay: (§1) Activation of CB1 receptor in Wistar rat prelimbic prefrontal cortex assessed as reduction of field excitatory postsynaptic potential amplitude after 20 mins; type: tissue-based
Cannabinoid receptor 1 (Rattus norvegicus), sequence (P20272 whole entry): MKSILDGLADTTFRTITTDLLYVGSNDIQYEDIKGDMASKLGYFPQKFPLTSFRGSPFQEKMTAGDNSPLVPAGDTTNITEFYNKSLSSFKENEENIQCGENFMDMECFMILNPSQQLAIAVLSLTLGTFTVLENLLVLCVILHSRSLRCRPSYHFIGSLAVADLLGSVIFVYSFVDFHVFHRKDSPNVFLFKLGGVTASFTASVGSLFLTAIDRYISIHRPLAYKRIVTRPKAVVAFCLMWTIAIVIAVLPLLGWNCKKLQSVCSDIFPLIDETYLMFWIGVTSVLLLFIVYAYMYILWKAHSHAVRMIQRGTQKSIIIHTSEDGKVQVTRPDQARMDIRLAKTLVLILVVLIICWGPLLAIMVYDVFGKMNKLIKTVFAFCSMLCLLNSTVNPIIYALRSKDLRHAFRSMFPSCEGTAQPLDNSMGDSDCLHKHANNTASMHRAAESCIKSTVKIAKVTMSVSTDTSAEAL

[10] = target: Cannabinoid receptor 1 (Rattus norvegicus, UniProt P20272); assay: as §1; type: tissue-based
Cannabinoid receptor 1 (Rattus norvegicus, UniProt P20272), sequence (P20272 whole entry): as above

[11] = target: Cannabinoid receptor 1 (Rattus norvegicus) (UniProt P20272); assay: Activation of CB1 receptor in Wistar rat prelimbic prefrontal cortex assessed as reduction of field excitatory postsynaptic potential amplitude after 20 mins relative to baseline; type: tissue-based
[12] = physchem; details: 0.01 M phosphate buffered saline, pH 7.4
[13] = Apparent permeability from apical to basolateral side in human Caco2 cells by LC-MS/MS analysis; details: Caco-2
[14] = physchem; details: 0.01 M phosphate buffered saline, pH 7.4; remark: listed apart in the source
[15] = Dissociation constant, pKa of the compound by fast UV-metric method; type: physicochemical

SMILES | solubility thermodynamic at 24 h [1] | logD [2] | Ratio Ki [3] | Ki [4] | EC50 [5] | Ki [6] | solubility thermodynamic at 24 h [7] | EC50 [8] | inhibition [9] | IC50 [10] | Emax [11] | solubility kinetic [12] | Papp A→B [13] | solubility kinetic [14] | pKa [15]
CCCCCn1cc(C(=O)Nc2ccc3ccccc3c2)c2ccccc21 | < 1 µM | > 5 | 10 | 63.1 nM | 5010 nM | 631 nM | < 1 µM | > 1000 nM |  |  |  |  |  |  | 
CCCCCn1cc(C(=O)c2cccc3ccccc23)c2ccccc21 | < 1 µM | > 5 | 3 | 2 nM | 5.01 nM | 6.31 nM | < 1 µM | 5.01 nM | Dose-dependent effect | 280 nM | 73.5% |  |  |  | 
COCCn1cc(C(=O)c2cccc3ccccc23)c2cccnc21 | 3 µM (≈ 0.991 µg/mL) | 3.57 | 0.4 | 501 nM | > 1000 nM | 200 nM | 3 µM (≈ 0.991 µg/mL) | > 1000 nM |  |  |  | 10 µM (≈ 3.3 µg/mL) | 26 ×10⁻⁶ cm/s | 65 µM (≈ 21.5 µg/mL) | < 2
COCCn1cc(C(=O)Nc2ccc3ccccc3c2)c2ccccc21 | < 1 µM | 3.69 | < 0.3 | > 1000 nM |  | 316 nM | < 1 µM |  |  |  |  |  |  |  | 
CCCCCn1cc(C(=O)c2ccccc2-c2ccccc2)c2ccccc21 |  | > 5 | 1 | 6.31 nM |  | 7.94 nM | < 1 µM |  |  |  |  |  |  |  | 
CCCCCCC(C)(C)c1cc(O)c2c(c1)OC(C)(C)C1CCC(=O)CC21 (stereo not given) [NABILONE] | < 1 µM | > 5 | 1.7 | 3.98 nM | 15.8 nM | 6.31 nM | < 1 µM |  |  |  |  |  |  |  | 10.6
CCCCCn1cc(C(=O)c2cccc3ccccc23)c2cnccc21 |  |  |  | 316 nM |  | 50.1 nM |  | 50.1 nM |  |  |  |  |  |  | 6.49
COCCn1cc(C(=O)c2cccc3ccccc23)c2ccncc21 |  | 3.13 | < 0.03 | > 1000 nM |  | 25.1 nM |  | > 1000 nM |  |  |  |  |  |  | 5.8
Cc1c(C(=O)c2cccc3ccccc23)c2cccc3c2n1[C@H](CN1CCOCC1)CO3 [WIN-552122] | 8 µM (≈ 3.41 µg/mL) | 4.08 |  |  |  |  | 5 µM (≈ 2.13 µg/mL) |  |  |  |  | 3 µM (≈ 1.28 µg/mL) | 12.1 ×10⁻⁶ cm/s | 20 µM (≈ 8.53 µg/mL) | 4.14
COCCn1cc(C(=O)c2ccccc2-c2ccccc2)c2ccccc21 | < 1 µM | 3.31 | 3 | 251 nM |  | 631 nM | < 1 µM |  |  |  |  |  |  |  | 
CCCCCn1cc(C(=O)c2ccc(-c3ccccc3)cc2)c2ccccc21 | < 1 µM | > 5 | 1 | 31.6 nM |  | 39.8 nM | < 1 µM |  |  |  |  |  |  |  | 
CCCCCn1cc(C(=O)c2cccc(-c3ccccc3)c2)c2ccccc21 |  | > 5 | 9 | 7.94 nM |  | 63.1 nM | < 1 µM |  |  |  |  |  |  |  | 
CCCCCCC(C)(C)c1ccc([C@@H]2C[C@H](O)CC[C@H]2CCCO)c(O)c1 [CP-55940] | 2 µM (≈ 0.753 µg/mL) | > 5 |  |  |  |  | 2 µM (≈ 0.753 µg/mL) |  |  |  |  | 30 µM (≈ 11.3 µg/mL) | 5.7 ×10⁻⁶ cm/s | 100 µM (≈ 37.7 µg/mL) | 11.2
CCCCCn1cc(C(=O)c2cccc3ccccc23)c2ccncc21 |  | 4.72 | 3 | 158 nM |  | 501 nM | 4 µM (≈ 1.37 µg/mL) | 100 nM |  |  |  | 3 µM (≈ 1.03 µg/mL) | 13 ×10⁻⁶ cm/s | 10 µM (≈ 3.42 µg/mL) | 5.83
COCCn1cc(C(=O)c2cccc(-c3ccccc3)c2)c2ccccc21 | < 1 µM | 4.4 | > 4 | 251 nM |  | > 1000 nM | < 1 µM |  |  |  |  |  |  |  | 
CCCCCn1cc(C(=O)c2cccc3ccccc23)c2cccnc21 | 1 µM (≈ 0.342 µg/mL) | > 5 | 4 | 12.6 nM | 158 nM | 50.1 nM | 1 µM (≈ 0.342 µg/mL) | 31.6 nM | Dose-dependent effect | 520 nM | 67.1% |  |  |  | < 2
COCCn1cc(C(=O)Nc2cccc3ccccc23)c2ccccc21 | 3 µM (≈ 1.03 µg/mL) | 2.94 | < 0.3 | > 1000 nM | 6.31 nM | 251 nM | 3 µM (≈ 1.03 µg/mL) |  |  |  |  | 30 µM (≈ 10.3 µg/mL) | 27 ×10⁻⁶ cm/s | 100 µM (≈ 34.4 µg/mL) | 
COCCn1cc(C(=O)c2ccc(-c3ccccc3)cc2)c2ccccc21 | < 1 µM | 4.5 |  | > 1000 nM |  | > 1000 nM | < 1 µM |  |  |  |  |  |  |  | 
CCCCCn1cc(C(=O)Nc2cccc3ccccc23)c2ccccc21 | < 1 µM | > 5 | 79 | 1.26 nM | 7.94 nM | 100 nM | < 1 µM | 10 nM | Dose-dependent effect | 450 nM | 78.1% |  |  |  | 

From ChEMBL document CHEMBL1828497, “Novel indole and azaindole (pyrrolopyridine) cannabinoid (CB) receptor agonists: design, synthesis, structure-activity relationships, physicochemical properties and biological activity” (Eur J Med Chem, 2011)
